# Results taken from patent US6337333B1, “Method of treating autoimmune disease with fludarabine-5′-monophosphate” (priority 1992, dated 2002).
# Tests used:
# Type in all cases: cell-based, human
# T and B lymphocytes = test: Mitogen response of PBMC enriched for T or B lymphocytes continuously cultured with drug; settings: cultures continuously exposed to drug
# Method: In FIG. 2, peripheral blood mononuclear cells enriched for either T (top) or B (bottom) lymphocytes were continuously cultured with the appropriate concentrations of drug for 3 or 6 days, respectively. The mitogen PHA-P was used at 5 μg/ml and the mitogen PWM was used at 1 μg/ml. The wells were pulsed and harvested as described above.
# The adenosine analog 2-chlorodeoxyadenosine (2CDA) has also been reported to have significant cytotoxic and immunosuppressive effects on normal lymphocytes (10,13).
# [1] = system: CD20, CD20/CD5 and CD3/CD5 lymphocyte subsets; test: Flowcytometric phenotype of lymphocyte subsets in SAC + rIL-2 cultures; settings: for CD20/CD5 subpopulations: end of 5 and 10 day culture periods, drug dose dependent, data not shown; for effect on relative percent of CD20, CD20/CD5 and CD3/CD5 staining cells: 5 day SAC + rIL-2 culture, FIG. 4; for CD20, % Viable (% Total) / CD20/5, % Viable (% Total): 5 day culture, 1.0 μg/ml FLP + SAC/rIL-2 (50 μ/ml)
# Method: Approximately 5×10^5−1×10^6 PBMC, enriched T, or B lymphocytes were cultured in 1 ml of S-10 in Falcon 10×75 mm capped polypropylene tissue culture tubes (Falcon #2063) for the appropriate times at 37° C. in a humidified 5% CO2/air atmosphere. Recombinant IL-2 (rIL-2) was used at 50 U/ml and SAC was at a final concentration of {fraction (1/60,000)}. The mitogens phytohemagglutinin (PHA-P) (Pharmacia, #27-3707-01, Uppsala, Sweden) and pokeweed mitogen (PWM, Pharmacia, #27-3702-01) were used at 5 μg/ml and 10 μg/ml, respectively.
# Cells were washed once in citrate buffered saline (C-BSS) and 10^5-10^6 cells per sample were aliquoted for staining. For direct immunofluorescence, […] of either FITC- or PC-conjugated CD-specific mouse monoclonal antibody (Becton Dickinson, San Jose, Calif.) were added to cells in […] of C-BSS and incubated at RT for 30 min. The samples were then washed once in 2 ml C-BSS, resuspended in 0.5 ml C-BSS and acquired on a B/D FACScan Flowcytometer using either Simulset or Lysis II software. During analysis of data files, lymphocytes were discriminated from monocytes and dead cells on the basis of their forward light scatter (FCS) properties and high positivity with anti-CD45 and anti-CD14 (leucogate).
# In FIG. 4, at the end of the culture period, the cells were washed, fixed with 1% formalin/PBS, and stained with mouse monoclonals anti-CD20 (PE), anti-CD3 (PE), and anti-CD5 (FITC). The stained samples were analyzed on a FACScan flowcytometer using LYSYS II software. Viable cells were gated and results are expressed as percent of total viable events acquired.
# Experiments were conducted that sampled supernatants and cells at 5 and 10 days culture with various amounts of drug.
# IgM production = test: Cumulative IgM production in SAC + rIL-2 cultures, EIA; settings: for accumulation of IgM: 5 and 10 day SAC rIL-2 cultures, preliminary studies
# Method: In FIG. 5, peripheral blood mononuclear cells (PBMC) enriched for B lymphocytes (BC89; 60% CD19, 59% CD20, 8% CD3) were continuously cultured at 5×10^5/ml and stimulated with Staphylococcus aureus Cowan I (SAC) plus interleukin 2 (IL-2) (50 U/ml) in the presence of 1.0 μg/ml of FLP. Recombinant IL-6 was added to 50 U/ml. After the culture period, the supernatants were harvested and assayed for huIgM by EIA. Results shown are from 1 representative experiment of 5 different experiments conducted with 5 different sources of leukocyte preparations. […]
# In FIG. 7, peripheral blood mononuclear cells (PBMC) enriched for B lymphocytes (BC92; 35% CD19, 33% CD20, 35% CD3) were continuously cultured for 5 days in either medium alone, Staphylococcus aureus Cowan I (SAC) plus interleukin 2 (IL-2) (50 U/ml), or SAC plus IL-2 in the presence of various concentrations of FLP or 2-chlorodeoxyadenosine (2CDA). After 5 days of culture, the supernatants were harvested and serial dilutions of supernatant assayed for huIgM and huIgG by EIA. The presence of IgM rheumatoid factor (IgM-RF) was determined by EIA using the Vectastain Biotin-Streptavidin amplification system. Results are reported as O.D. 405 nm units. […] The results shown are from 1 representative experiment of 4 separate experiments conducted with 4 different sources of packed leukocytes.
# In FIG. 8, peripheral blood mononuclear cells (PBMC) enriched for B lymphocytes (BC92, 35% CD19, 33% CD20, 35% CD3) were continuously cultured for 10 days in either medium alone, Staphylococcus aureus Cowan I (SAC) plus interleukin 2 (IL-2) (50 U/ml), or SAC plus IL-2 in the presence of various concentrations of FLP or 2CDA. At the end of the culture period, the supernatants were harvested and serial dilutions assayed for huIgM, huIgG, and IgM-RF by EIA. The cells were phenotyped by flowcytometry. Results are reported as O.D. 405 nm units. […] The results shown are from 1 experiment representative of 3 separate experiments conducted with 3 different sources of packed leukocytes.
# In FIG. 9, peripheral blood mononuclear cells (PBMC) (BC93; 22% CD19, 20% CD20, 78% CD3) were continuously cultured for 5 days in either medium alone, Staphylococcus aureus Cowan I (SAC) plus interleukin 2 (IL-2) (50 U/ml) or 20% T cell conditioned medium (Tcm) in the presence of various concentrations of FLP. At the end of the 5 day culture period, the supernatants were harvested and serial dilutions assayed for huIgM, huIgG, and IgM-RF by EIA. The results are reported as O.D. 405 nm units. […] The results shown are from one representative experiment.
# Immulon-2 (Dynatek Laboratories, #011-010-3450, Chantilly, Va.) flat-bottom 96 well microtiter plates were coated with 100 μl/well of a 2 μg/ml solution of goat F(ab′)2 anti-HuIgM (μ chain, CALTAG #H15100, So. San Francisco, Calif.) or goat F(ab′)2 anti-HuIgG (Fc sp., CALTAG #H10100) in 0.1 M sodium carbonate buffer, pH 9.6 overnight at 4° C. Uncoated wells were incubated with the carbonate buffer alone. The plates were rinsed and then incubated with 100 μl/well of 0.1% BSA/PBS for 1 hr at RT.
# [2] = one microgram per ml, 5 days, FIG. 7A
smiles,measurement,setting,value
"Nc1nc(Cl)nc2c1ncn2[C@H]1C[C@H](O)[C@@H](CO)O1 [2CDA, 2-chlorodeoxyadenosine]",level of drug that suppresses the mitogen response,T and B lymphocytes,0.5 µg/mL
same,CD20/CD5 subpopulations,[1],decreased
same,accumulation of IgM,IgM production,dose-related decrease
same,effect on IgM production,IgM production; [2],block
same,effect on IgM accumulation,"IgM production; one microgram per ml, 10 days",block the accumulation
"Nc1nc(F)nc2c1ncn2[C@@H]1O[C@H](COP(=O)(O)O)[C@@H](O)[C@@H]1O [FLP, fludarabine-5′-monophosphate]",level of drug that suppresses the mitogen response,T and B lymphocytes,0.5 µg/mL
same,"effect on relative percent of CD20, CD20/CD5 and CD3/CD5 staining cells",[1]; 0.1 μg/ml,minimal effect
same,"effect on relative percent of CD20, CD20/CD5 and CD3/CD5 staining cells",[1]; 0.5 μg to 5.0 μg/ml,dose-dependent decrease
same,"CD20, % Viable (% Total)",[1]; IL-6 +,60%
same,"CD20/5, % Viable (% Total)",[1]; IL-6 +,1.9%
same,"CD20, % Viable (% Total)",[1]; IL-6 −,64%
same,"CD20/5, % Viable (% Total)",[1]; IL-6 −,1.8%
same,CD20/CD5 subpopulations,[1],decreased
same,effect on IgM accumulation,"IgM production; 0.1 μg/ml, 10 days, FIG. 8A",minimal effect
same,reduction of IgM accumulation,"IgM production; 1 μg, 10 days, FIG. 8A",80%
same,detectable IgM in supernatants,"IgM production; 1.0 μg/ml, 5 day cultures, FIG. 5",background levels
same,reduction of IgM accumulation,"IgM production; 5 μg, 10 days, FIG. 8A",98%
same,effect on IgM accumulation,"IgM production; 5 μg/ml, 5 days, FIG. 7A",block any measurable IgM accumulation
same,effect on IgM accumulation,"IgM production; 0.1 and 0.5 μg/ml, PBMC, 5 days, cultures containing rIL-2 or 20% T cell conditioned medium, FIG. 9A",reduce
same,accumulation of IgM,IgM production,dose-related decrease
same,effect on IgM production,"IgM production; one hundred nanograms per ml, 5 days, FIG. 7A",minimal effect
same,effect on IgM production,IgM production; [2],intermediate effect
